Species: Rattus norvegicus
Test: DrugMatrix - Regimen: Daily Repeat
Format: toxicity, organism-based, Sprague-Dawley
Parameters: regimen Daily Repeat, gender Male, age 6-8 weeks
Conditions: in vivo, po, route oral GAVAGE, vehicle .5 % CMC; for ABSOLUTE BASOPHIL / ABSOLUTE EOSINOPHIL / ABSOLUTE LYMPHOCYTE / ABSOLUTE MONOCYTE / ABSOLUTE SEGMENTED NEUTROPHIL / BASOPHIL / EOSINOPHIL / ERYTHROCYTE COUNT / HEMATOCRIT / HEMOGLOBIN / LEUKOCYTE COUNT / LYMPHOCYTE / MEAN CORPUSCULAR HEMOGLOBIN / MEAN CORPUSCULAR HEMOGLOBIN CONCENTRATION / MEAN CORPUSCULAR VOLUME / MONOCYTE / NEUTROPHIL / NUCLEATED RED BLOOD CELLS / PLATELET COUNT: tissue Blood; for ALANINE AMINOTRANSFERASE / ALBUMIN / ALKALINE PHOSPHATASE / ASPARTATE AMINOTRANSFERASE / BLOOD UREA NITROGEN / CARBON DIOXIDE / CHLORIDE / CHOLESTEROL / CREATINE PHOSPHOKINASE / CREATININE / GLUCOSE / LACTATE DEHYDROGENASE / LIPASE / PHOSPHORUS / POTASSIUM / SODIUM / TOTAL BILIRUBIN / TOTAL PROTEIN / URIC ACID: tissue Plasma
[1] = 0 mg/kg, 72 h, dose level Control, time 3 day
[2] = 0 mg/kg, 120 h, dose level Control, time 5 day
[3] = 100 mg/kg, 72 h, dose level Low, time 3 day

Structure (SMILES): CCc1ccc(C(=O)C(C)CN2CCCCC2)cc1 (centres undefined) [EPERISONE]
- ABSOLUTE BASOPHIL [1]: 0 CELLS/uL
- ABSOLUTE EOSINOPHIL [1]: 284.5 CELLS/uL
- ABSOLUTE LYMPHOCYTE [1]: 11670.5 CELLS/uL
- ABSOLUTE MONOCYTE [1]: 420.83 CELLS/uL
- ABSOLUTE SEGMENTED NEUTROPHIL [1]: 1024.17 CELLS/uL
- BASOPHIL [1]: 0%
- EOSINOPHIL [1]: 1.67%
- ERYTHROCYTE COUNT [1]: 5.38 x10E6/uL
- HEMATOCRIT [1]: 34.05%
- HEMOGLOBIN [1]: 12.75 G/DL
- LEUKOCYTE COUNT [1]: 13.4 x10E3/uL
- LYMPHOCYTE [1]: 88.33%
- MEAN CORPUSCULAR HEMOGLOBIN [1]: 23.73 pg
- MEAN CORPUSCULAR HEMOGLOBIN CONCENTRATION [1]: 37.43 G/DL
- MEAN CORPUSCULAR VOLUME [1]: 63.4 fL
- MONOCYTE [1]: 2.83%
- NEUTROPHIL [1]: 7.17%
- NUCLEATED RED BLOOD CELLS [1]: 0 /100WBC
- PLATELET COUNT [1]: 1184.67 x10E3/uL
- ALANINE AMINOTRANSFERASE [1]: 45.33 u/L
- ALBUMIN [1]: 4.3 G/DL
- ALKALINE PHOSPHATASE [1]: 388.83 u/L
- ASPARTATE AMINOTRANSFERASE [1]: 84.83 u/L
- BLOOD UREA NITROGEN [1]: 15.5 mg/dL
- CARBON DIOXIDE [1]: 27 mmol/L
- CHLORIDE [1]: 101.8 MEQ/L
- CHOLESTEROL [1]: 76.67 mg/dL
- CREATINE PHOSPHOKINASE [1]: 301 u/L
- CREATININE [1]: 0.21 mg/dL
- GLUCOSE [1]: 168.83 mg/dL
- LACTATE DEHYDROGENASE [1]: 294.83 u/L
- LIPASE [1]: 9.8 u/L
- PHOSPHORUS [1]: 13.25 mg/dL
- POTASSIUM [1]: 6.41 MEQ/L
- SODIUM [1]: 143.72 MEQ/L
- TOTAL BILIRUBIN [1]: 0.22 mg/dL
- TOTAL PROTEIN [1]: 5.98 G/DL
- URIC ACID [1]: 1.5 mg/dL
- ABSOLUTE BASOPHIL [2]: 0 CELLS/uL
- ABSOLUTE EOSINOPHIL [2]: 190.67 CELLS/uL
- ABSOLUTE LYMPHOCYTE [2]: 12549.5 CELLS/uL
- ABSOLUTE MONOCYTE [2]: 276 CELLS/uL
- ABSOLUTE SEGMENTED NEUTROPHIL [2]: 1067.17 CELLS/uL
- BASOPHIL [2]: 0%
- EOSINOPHIL [2]: 1.33%
- ERYTHROCYTE COUNT [2]: 5.66 x10E6/uL
- HEMATOCRIT [2]: 35.92%
- HEMOGLOBIN [2]: 13.65 G/DL
- LEUKOCYTE COUNT [2]: 14.08 x10E3/uL
- LYMPHOCYTE [2]: 89%
- MEAN CORPUSCULAR HEMOGLOBIN [2]: 24.12 pg
- MEAN CORPUSCULAR HEMOGLOBIN CONCENTRATION [2]: 38.03 G/DL
- MEAN CORPUSCULAR VOLUME [2]: 63.47 fL
- MONOCYTE [2]: 2%
- NEUTROPHIL [2]: 7.67%
- NUCLEATED RED BLOOD CELLS [2]: 0.17 /100WBC
- PLATELET COUNT [2]: 1251.67 x10E3/uL
- ALANINE AMINOTRANSFERASE [2]: 43.33 u/L
- ALBUMIN [2]: 4.22 G/DL
- ALKALINE PHOSPHATASE [2]: 365.67 u/L
- ASPARTATE AMINOTRANSFERASE [2]: 83.67 u/L
- BLOOD UREA NITROGEN [2]: 18.17 mg/dL
- CARBON DIOXIDE [2]: 28.67 mmol/L
- CHLORIDE [2]: 103.5 MEQ/L
- CHOLESTEROL [2]: 71.5 mg/dL
- CREATINE PHOSPHOKINASE [2]: 284.5 u/L
- CREATININE [2]: 0.21 mg/dL
- GLUCOSE [2]: 161.67 mg/dL
- LACTATE DEHYDROGENASE [2]: 259.67 u/L
- LIPASE [2]: 9.5 u/L
- PHOSPHORUS [2]: 12.45 mg/dL
- POTASSIUM [2]: 6.49 MEQ/L
- SODIUM [2]: 144.25 MEQ/L
- TOTAL BILIRUBIN [2]: 0.2 mg/dL
- TOTAL PROTEIN [2]: 6.1 G/DL
- URIC ACID [2]: 1.73 mg/dL
- ABSOLUTE BASOPHIL [3]: 0 CELLS/uL
- ABSOLUTE EOSINOPHIL [3]: 0 CELLS/uL
- ABSOLUTE LYMPHOCYTE [3]: 7799.67 CELLS/uL
- ABSOLUTE MONOCYTE [3]: 242.67 CELLS/uL
- ABSOLUTE SEGMENTED NEUTROPHIL [3]: 691 CELLS/uL
- BASOPHIL [3]: 0%
- EOSINOPHIL [3]: 0%
- ERYTHROCYTE COUNT [3]: 5.44 x10E6/uL
- HEMATOCRIT [3]: 34.63%
- HEMOGLOBIN [3]: 12.8 G/DL
- LEUKOCYTE COUNT [3]: 8.73 x10E3/uL
- LYMPHOCYTE [3]: 89.33%
- MEAN CORPUSCULAR HEMOGLOBIN [3]: 23.6 pg
- MEAN CORPUSCULAR HEMOGLOBIN CONCENTRATION [3]: 36.97 G/DL
- MEAN CORPUSCULAR VOLUME [3]: 63.73 fL
- MONOCYTE [3]: 2.67%
- NEUTROPHIL [3]: 8%
- NUCLEATED RED BLOOD CELLS [3]: 0 /100WBC
- PLATELET COUNT [3]: 1233.67 x10E3/uL
- ALANINE AMINOTRANSFERASE [3]: 50 u/L
- ALBUMIN [3]: 4.33 G/DL
- ALKALINE PHOSPHATASE [3]: 470.67 u/L
- ASPARTATE AMINOTRANSFERASE [3]: 82 u/L
- BLOOD UREA NITROGEN [3]: 13.67 mg/dL
- CARBON DIOXIDE [3]: 29.33 mmol/L
- CHLORIDE [3]: 101.5 MEQ/L
- CHOLESTEROL [3]: 90.33 mg/dL
- CREATINE PHOSPHOKINASE [3]: 213.33 u/L
- CREATININE [3]: 0.21 mg/dL
- GLUCOSE [3]: 138.33 mg/dL
- LACTATE DEHYDROGENASE [3]: 128.67 u/L
- LIPASE [3]: 9 u/L
- PHOSPHORUS [3]: 11.63 mg/dL
- POTASSIUM [3]: 6.14 MEQ/L
- SODIUM [3]: 146.7 MEQ/L
- TOTAL BILIRUBIN [3]: 0.3 mg/dL
- TOTAL PROTEIN [3]: 6.07 G/DL
- URIC ACID [3]: 0.97 mg/dL

Reference: ChEMBL document CHEMBL3885881, “DrugMatrix”
